For 24 compounds, IC50 results are on record in US20220324868A1, “Pyrazolone-Fused Pyrimidine Compound, and Preparation Method and Use Therefor” (SHANGHAI PHARMACEUTICALS HOLDING CO., LTD., priority 2019, published 2022).

One assay addresses T1, WEE1 kinase (Homo sapiens, UniProt P30291).
T1 construct: purchased CarnaBiosciences, Inc. 05-177
In words: Inhibitory effect on WEE1 kinase in vitro (ELISA). The settings on record: ATP concentration of Km (12 μM), WEE1 0.15 ng/μL, 60 min, read-out: WEE1 IC50. Format: biochemical. Here is the method: I. Inhibitory Effect of Compound on WEE1 Kinase In Vitro
The tested compounds were screened on WEE1 kinase with ATP concentration of Km by ELISA. Three compounds were screened on WEE1 kinase to evaluate the kinase inhibitory activity of the tested compounds. In the detection process, the initial concentration of the tested compounds was all selected as 100 nM, and each compound was selected with 6 gradient dilution concentrations, the gradient dilution ratio was 4-fold, and two replicate wells were detected for each concentration, MK1775 was used as the standard control.
1. Coating substrate: 1) An appropriate volume of substrate storage solution protein tyrosinase (PTK) substrate (poly-Glu-Tyr) was taken, diluted 10 times with PBS, and the concentration was diluted from […]. The mixture was added to a high adsorption 96-well plate at 125 μL per well. The plate was placed in an incubator at 37° C. for overnight coating. 2) After 24 hours, the 96-well plate was taken out, the liquid in the 96-well plate was poured out, cleaned with washing buffer for 3 times, and the incubator at 37 was inverted and dried for 2 hours.
3. Enzyme reaction stage: 1) WEE1 kinase and ATP were prepared into 2× enzyme solution and 4× ATP solution respectively with 1× reaction buffer.
4. Reaction termination stage: 1) the reaction mixture in the plate was poured out, 200 μL of washing buffer was added to each well, and washed for 5 times; the primary antibody P-Tyr (PY99) (dilution ratio 1:2000) was added, 100 μL per well, at room temperature for 30 min. 2) The primary antibody in the plate was poured out, 200 μL of washing buffer was added to each well, and washed for 5 times; the second antibody Anti-mouse IgG HRP-linked Antibody (dilution ratio 1:2000) was added, 100 μL per well, at room temperature for 30 min. 3) The secondary antibody in the plate was poured out, washed 5 times with washing buffer, and TMB was added, 100 μL per well, and colored for 10-30 min, depending on the color depth. The reaction was terminated with 1N sulfuric acid before reading.
5. […] 2) Graphpad Prism 5.0 was used to fit Log(inhibitor) vs. response-Variable slope (four parameters) curves to the data, and the corresponding IC50 (half maximal inhibitory concentration) was calculated.

Another assay has as its system Hela cells. In words: Proliferation inhibition of Hela cells (Luminescence ATP Detection, ATPlite). Format: cell-based. The settings on record: Homo sapiens, 72 hours. Here is the method:
(§1) I. Proliferation Inhibitory of the Compound on COLO 205 Cells and Hela Cells.
(§2) COLO205 cells, purchased from SIBS, generation P11; Hela purchased from ATCC, generation P13.
Cell culture and inoculation: on the first day of the experiment, cells in normal culture were taken in their exponential growth state, digested and dispersed, the cell density was adjusted to 9×10^3 cells/mL, and 40 μL per well were inoculated into 384-well cell culture plates; after inoculation was completed, the microplates were placed at 37° C. and 5% CO2 for incubation.
Drug treatment of cells: on the second day of the experiment, microplates were removed from the incubator, 9× compound were added to each well in the microplate, and 5 μL was added to each well, wherein there were 2 replicate wells for each drug concentration and 10 drug concentrations for each compound. According to different cell lines, the initial concentration of each compound was different, after the completion, the microplate was cultured at 37° C. and 5% CO2 for 72 hours.
Data collection: the microplates were removed from the incubator and equilibrated at room temperature for 30 minutes. 40 μL of ATPlite reaction mixture after room temperature equilibrium was added to each well, the solution was shaken at room temperature of 1300 rpm for 2 minutes, and then the microplate was placed in a HERAEUS Multifuge X1R centrifuge at 2000 rpm for 1 minute; after equilibrium at room temperature for 10 minutes, the fluorescence signal value was measured on EnVision™.
(§3) Calculation of cell viability: Cell viability(%)=signal value of administration/signal value of controlx 100%. Graphpad Prism 5.0 was used to fit Log(inhibitor) vs. response-Variable slope (four parameters) curves to the fluorescence signal values at each concentration, and the corresponding IC50 (half maximal inhibitory concentration) was calculated.

The subject of another assay is COLO 205 cells. As to the kind of experiment: Proliferation inhibition of COLO 205 cells (Luminescence ATP Detection, ATPlite). The settings on record: Homo sapiens; p53-deficient cell line COLO 205, 72 hours. Format: cell-based. Here is the method:
as §1, §2
Drug treatment of cells: on the third day of the experiment, microplates were removed from the incubator, 9× compound were added to each well in the microplate, and 5 μL was added to each well, wherein there were 2 replicate wells for each drug concentration and 10 drug concentrations for each compound. According to different cell lines, the initial concentration of each compound was different, after the completion, the microplate was cultured at 37° C. and 5% CO2 for 72 hours.
Data collection: The microplates were removed from the incubator and equilibrated at room temperature for 30 minutes. 100 μL of ATPlite reaction mixture after room temperature equilibrium was added to each well, the solution was shaken at room temperature of 1300 rpm for 2 minutes, and then the microplate was placed in a HERAEUS Multifuge X1R centrifuge at 2000 rpm for 1 minute; after equilibrium at room temperature for 10 minutes, the fluorescence signal value was measured on EnVision™.
as §3
(ATP-based viability assays read luminescence as a measure of living cells.)

Counter-ions that a name gives are not always drawn.

T1 sequence (P30291 whole entry): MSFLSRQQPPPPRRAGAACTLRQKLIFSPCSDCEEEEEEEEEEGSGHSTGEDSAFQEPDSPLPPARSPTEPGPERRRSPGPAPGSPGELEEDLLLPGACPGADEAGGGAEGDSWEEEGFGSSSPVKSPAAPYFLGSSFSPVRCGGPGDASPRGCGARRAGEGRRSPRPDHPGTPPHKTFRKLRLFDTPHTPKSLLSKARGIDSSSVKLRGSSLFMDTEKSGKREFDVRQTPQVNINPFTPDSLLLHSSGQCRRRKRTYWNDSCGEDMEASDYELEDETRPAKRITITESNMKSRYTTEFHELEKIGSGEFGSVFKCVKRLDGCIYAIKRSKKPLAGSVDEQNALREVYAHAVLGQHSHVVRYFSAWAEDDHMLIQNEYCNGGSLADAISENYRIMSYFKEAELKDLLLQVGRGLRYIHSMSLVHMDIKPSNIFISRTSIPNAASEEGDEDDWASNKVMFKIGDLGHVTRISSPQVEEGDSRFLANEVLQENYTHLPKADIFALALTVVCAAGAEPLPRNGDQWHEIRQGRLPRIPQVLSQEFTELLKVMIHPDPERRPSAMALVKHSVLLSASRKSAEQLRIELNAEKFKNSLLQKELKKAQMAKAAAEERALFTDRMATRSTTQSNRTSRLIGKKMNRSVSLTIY

In the case of `C=CCn1c(=O)c2cnc(Nc3ccc(N4CCC5(CCNC5)CC4)cc3)nc2n1-c1ccc2c(n1)C(O)CCC2` (stereo not drawn) [Compound I-22], the half-inhibitory concentration (IC50) – broadly, the concentration at which inhibition is half-maximal – on WEE1 kinase is 3.55 nM.

As to `C=CCn1c(=O)c2cnc(Nc3ccc(N4CCNCC4)cc3)nc2n1-c1ccc2c(n1)C(C)(O)CCC2` (stereo not drawn) [Compound I-18, 2-allyl-1-(8-hydroxy-8-methyl-5,6,7,8-tetrahydroquinolin-2-yl)-6-((4-(piperazin-1-yl)phenyl)amino)-1,2-dihydro-3H-pyrazolo[3,4-d]pyrimidin-3-one], the IC50 at WEE1 kinase came out at 2.03 nM.

`C=CCn1c(=O)c2cnc(Nc3ccc(N4CC5(CC(N(C)C)C5)C4)cc3)nc2n1-c1ccc2c(n1)C(O)CC2` (stereo not drawn) [Compound I-42] returned an IC50 with Hela cells of 322 nM.

For `C=CCn1c(=O)c2cnc(Nc3ccc(N4C[C@H]5CNC[C@H]5C4)cc3)nc2n1-c1ccc2c(n1)C(C)(O)CCC2` (stereo partly drawn) [Compound I-33, 2-allyl-6-((4-((3aR, 6aS)hexahydropyrrolo[3,4-c]pyrrolo-2(1H)-yl)phenyl)amino)-1-(8-hydroxy-8-methyl-5,6,7,8-tetrahydroquinolin-2-yl)-1,2-dihydro-3H-pyrazolo[3,4-d]pyrimidin-3-one], the concentration for half-maximal inhibition (IC50) with Hela cells is 200 nM; in the assay on COLO 205 cells, 891 nM; at WEE1 kinase it was 3.48 nM.

Turning to `C=CCn1c(=O)c2cnc(Nc3ccc(N4CCC(CN(C)C)CC4)cc3)nc2n1-c1ccc2c(n1)C(O)CC2` (stereo not drawn) [Compound I-5, 2-allyl-6-((4-(4-((dimethylamino)methyl)piperidin-1-yl)phenyl)amino)-1-(7-hydroxy-6,7-dihydro-5H-cyclopenta[b]pyridin-2-yl)-1,2-dihydro-3H-pyrazolo[3,4-d]pyrimidin-3-one], the IC50 with Hela cells worked out at 392 nM; in the assay on COLO 205 cells it was 2550 nM; on WEE1 kinase, 3.62 nM.

Turning to `C=CCn1c(=O)c2cnc(Nc3ccc(N4CCNCC4)cc3)nc2n1-c1ccc2c(n1)C(O)CCC2` (stereo not drawn) [Compound I-24], the IC50 at WEE1 kinase was found to be 3.81 nM.

On to `C=CCn1c(=O)c2cnc(Nc3ccc(N4CC5(CCN(C)CC5)C4)cc3)nc2n1-c1ccc2c(n1)C(O)CC2` (stereo not drawn) [Compound I-10], for which the IC50 stood at 206 nM in the assay on Hela cells, 920 nM in the assay with COLO 205 cells and 8.59 nM at WEE1 kinase.

In the case of `C=CCn1c(=O)c2cnc(Nc3ccc(N4CC5CN(C)CC5C4)cc3)nc2n1-c1ccc2c(n1)C(C)(O)CC2` (stereo not drawn) [Compound I-35, 2-allyl-1-(7-hydroxy-7-methyl-6,7-dihydro-5H-cyclopenta[b]pyridin-2-yl)-6-((4-(-5-methylhexahydropyrrolo[3,4-c]pyrrol-2(1H)-yl)phenyl)amino)-1,2-dihydro-3H-pyrazolo[3,4-d]pyrimidin-3-one], the IC50 in the assay on Hela cells was determined as 147 nM; with COLO 205 cells, 473 nM; on WEE1 kinase, 3.15 nM.

Regarding `C=CCn1c(=O)c2cnc(Nc3ccc(N4C[C@H]5CN(C)C[C@H]5C4)cc3)nc2n1-c1ccc2c(n1)C(O)CC2` (stereo partly drawn) [Compound I-31], at WEE1 kinase, the IC50 was determined as 3.12 nM.

Consider `C=CCn1c(=O)c2cnc(Nc3ccc([C@H]4CC[C@@H](N(C)C)CC4)cc3)nc2n1-c1ccc2c(n1)C(O)CC2` (single isomer, unassigned) [Compound I-30-1], for which the IC50 at WEE1 kinase stood at 5.86 nM.

For the compound `C=CCn1c(=O)c2cnc(Nc3ccc([C@H]4CC[C@@H](N(C)C)CC4)cc3)nc2n1-c1ccc2c(n1)C(C)(O)CCC2` (single isomer, unassigned) [Compound I-36-2], on WEE1 kinase, the IC50 was found to be 2.65 nM.

On to `C=CCn1c(=O)c2cnc(Nc3ccc(CCCN(C)C)cc3)nc2n1-c1ccc2c(n1)C(O)CC2` (stereo not drawn) [Compound I-43], for which the concentration for half-maximal inhibition (IC50) on WEE1 kinase worked out at 4.91 nM.

As for `C=CCn1c(=O)c2cnc(Nc3ccc(N4C[C@H]5CN(CC)C[C@H]5C4)cc3)nc2n1-c1ccc2c(n1)C(O)CC2` (stereo partly drawn) [Compound I-37], the IC50 on WEE1 kinase amounted to 11.8 nM.

As for `C=CCn1c(=O)c2cnc(Nc3ccc([C@H]4CC[C@@H](N(C)C)CC4)cc3)nc2n1-c1ccc2c(n1)C(O)CC2` (single isomer, unassigned) [Compound I-30-2], the IC50 at WEE1 kinase turned out to be 6.6 nM.

On to `C=CCn1c(=O)c2cnc(Nc3ccc(N4CCC5(CC4)CN(C)C5)cc3)nc2n1-c1ccc2c(n1)C(O)CC2` (stereo not drawn) [Compound I-8], for which, at WEE1 kinase, the IC50 amounted to 11.3 nM.

With `C=CCn1c(=O)c2cnc(Nc3ccc(CN4CCN(C)CC4)cc3)nc2n1-c1ccc2c(n1)C(O)CC2` (stereo not drawn) [Compound I-7], the IC50 in the assay on Hela cells amounted to 2900 nM; at WEE1 kinase, 9.69 nM.

For the compound `C=CCn1c(=O)c2cnc(Nc3ccc(N4CCOCC4)cc3)nc2n1-c1ccc2c(n1)C(C)(O)CC2` (stereo not drawn) [Compound I-15], the IC50 at WEE1 kinase came to 3.85 nM.

With `C=CCn1c(=O)c2cnc(Nc3ccc(N4CC5CC4CN5)cc3)nc2n1-c1ccc2c(n1)C(C)(O)CC2` (stereo not drawn) [Compound I-12, 6-((4-(2,5-diazabicyclo[2.2.1]heptan-2-yl)phenyl)amino)-2-allyl-1-(7-hydroxy-7-methyl-6,7-dihydro-5H-cyclopenta[b]pyridin-2-yl)-1,2-dihydro-3H-pyrazolo[3,4-d]pyrimidin-3-one], the IC50 at WEE1 kinase amounted to 3.68 nM.

In the case of `C=CCn1c(=O)c2cnc(Nc3ccc(N4CC5CC4CN5)cc3)nc2n1-c1ccc2c(n1)C(O)CCC2` (stereo not drawn) [Compound I-25], the IC50 at WEE1 kinase came out at 4.05 nM.

For the compound `C=CCn1c(=O)c2cnc(Nc3ccc([C@H]4CC[C@@H](N(C)C)CC4)cc3)nc2n1-c1ccc2c(n1)C(C)(O)CCC2` (single isomer, unassigned) [Compound I-36-1], the IC50 on WEE1 kinase was 4.75 nM.

Turning to `C=CCn1c(=O)c2cnc(Nc3ccc(N4CCC5(CC4)CN(C)C5)cc3)nc2n1-c1ccc2c(n1)C(O)CCC2` (stereo not drawn) [Compound I-20, 2-allyl-1-(8-hydroxy-5,6,7,8-tetrahydroquinolin-2-yl)-6-((4-(2-methyl-2,7-diazaspiro[3.5]nonan-7-yl)phenyl)amino)-1,2-dihydro-3H-pyrazolo[3,4-d]pyrimidin-3-one], the IC50 on WEE1 kinase was 4.41 nM.

As to `C=CCn1c(=O)c2cnc(Nc3ccc(N4CCC(N(C)C)CC4)cc3)nc2n1-c1ccc2c(n1)C(O)CCC2` (stereo not drawn) [Compound I-28, 2-allyl-6-((4-(4-(dimethylamino)piperidin-1-yl)phenyl)amino)-1-(8-hydroxy-5,6,7,8-tetrahydroquinolin-2-yl)-1,2-dihydro-3H-pyrazolo[3,4-d]pyrimidin-3-one formate], the IC50 on WEE1 kinase stood at 3.58 nM.

Consider `C=CCn1c(=O)c2cnc(Nc3ccc(N4CCC5(CC4)CNC5)cc3)nc2n1-c1ccc2c(n1)C(O)CCC2` (stereo not drawn) [Compound I-21, 6-((4-(2,7-diazaspiro[3.5]nonan-7-yl)phenyl)amino)-2-allyl-1-(8-hydroxy-5,6,7,8-tetrahydroquinolin-2-yl)-1,2-dihydro-3H-pyrazolo[3,4-d]pyrimidin-3-one], for which, on WEE1 kinase, the IC50 stood at 5.75 nM.

`C=CCn1c(=O)c2cnc(Nc3ccc(CCC(=O)N4CCCC4)cc3)nc2n1-c1ccc2c(n1)C(C)(O)CCC2` (stereo not drawn) [Compound I-17, 2-allyl-1-(8-hydroxy-8-methyl-5,6,7,8-tetrahydroquinolin-2-yl)-6-((4-(3-oxo-3-(pyrrolidin-1-yl)propyl)phenyl)amino)-1,2-dihydro-3H-pyrazolo[3,4-d]pyrimidin-3-one]: at WEE1 kinase, the IC50 was 12.8 nM.
